Measured values taken from patent US10342782B2, “Positive allosteric modulators of the muscarinic acetylcholine receptor M4” (Vanderbilt University, priority 2016, dated 2019).

Biological target: T1, Human M4 (Homo sapiens, UniProt P08173)
T1 sequence (P08173 1-479): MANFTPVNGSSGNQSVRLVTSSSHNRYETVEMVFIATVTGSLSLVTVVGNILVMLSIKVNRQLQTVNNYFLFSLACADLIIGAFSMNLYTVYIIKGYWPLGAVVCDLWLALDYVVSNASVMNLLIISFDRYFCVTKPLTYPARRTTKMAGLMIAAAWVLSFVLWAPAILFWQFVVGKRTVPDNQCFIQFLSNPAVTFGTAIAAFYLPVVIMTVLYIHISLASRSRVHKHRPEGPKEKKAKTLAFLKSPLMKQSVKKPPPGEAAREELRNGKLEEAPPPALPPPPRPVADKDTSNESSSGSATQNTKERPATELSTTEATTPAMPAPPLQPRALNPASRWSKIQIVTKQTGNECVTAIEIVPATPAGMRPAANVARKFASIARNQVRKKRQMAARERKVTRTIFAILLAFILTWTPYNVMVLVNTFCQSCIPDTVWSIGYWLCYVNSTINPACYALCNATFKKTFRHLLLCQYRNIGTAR
Experiment: cell-based
Settings: for Emax: CHO-K1
Description: Human M4 cDNA, along with the chimeric G protein Gqi5, were transfected into Chinese hamster ovary (CHO-K1) cells purchased from the American Type Culture Collection using Lipofectamine2000. M4/Gqi5/CHO cells were grown in Ham's F-12 medium containing 10% heat-inactivated fetal bovine serum (FBS), 20 mM HEPES, 500 μg/mL G418 sulfate, and 200 μg/mL Hygromycin B.
For high throughput measurement of agonist-evoked increases in intracellular calcium, CHO-K1 cells stably expressing muscarinic receptors were plated in growth medium lacking G418 and hygromycin at 15,000 cells/20 μL/well in Greiner 384-well black-walled, tissue culture (TC)-treated, clear-bottom plates (VWR). Cells were incubated overnight at 37° C. and 5% CO2. […] Test compound CRCs were then transferred to daughter plates (240 nL) using the Echo acoustic plate reformatter (Labcyte, Sunnyvale, Calif.) and then diluted into assay buffer (40 μL) to a 2× stock using a Thermo Fisher Combi (Thermo Fisher Scientific, Waltham, Mass.).
Calcium flux was measured using the Functional Drug Screening System (FDSS) 6000 or 7000 (Hamamatsu Corporation, Tokyo, Japan) as an increase in the fluorescent static ratio. Compounds were applied to cells (20 μL, 2×) using the automated system of the FDSS at 2-4 s into the protocol and the data were collected at 1 Hz. […] Agonist activity was analyzed as a concentration-dependent increase in calcium mobilization upon compound addition. Positive allosteric modulator activity was analyzed as a concentration-dependent increase in the EC20 acetylcholine response. Antagonist activity was analyzed as a concentration-dependent decrease in the EC80 acetylcholine response. Concentration-response curves were generated using a four-parameter logistical equation in XLFit curve fitting software (IDBS, Bridgewater, N.J.) for Excel (Microsoft, Redmond, Wash.) or Prism (GraphPad Software, Inc., San Diego, Calif.).

EC50 | Emax | Structure (SMILES)
1.2 µM | 43% | Cc1nc2cc(C)c3c(N)c(C(=O)N[C@@H]4CCN(c5ccc(F)cn5)C4)sc3n2n1 [Compound 15, (R)-6-amino-N-(1-(5-fluoropyridin-2-yl)pyrrolidin-3-yl)-2,5-dimethylthieno[3,2-e][1,2,4]triazolo[1,5-a]pyridine-7-carboxamide]
0.596 µM | 66% | Cc1nc2cc(C)c3c(N)c(C(=O)N[C@H]4CCN(c5ccc(F)cn5)C4)sc3n2n1 [Compound 12, (S)-6-amino-N-(1-(5-fluoropyridin-2-yl)pyrrolidin-3-yl)-2,5-dimethylthieno[3,2-e][1,2,4]triazolo[1,5-a]pyridine-7-carboxamide]
0.863 µM | 79% | Cc1nc2cc(C)c3c(N)c(C(=O)NC4CN(c5ncc(C6CC6)cc5C)C4)sc3n2n1 [Compound 9, 6-amino-N-(1-(5-cyclopropyl-3-methylpyridin-2-yl)azetidin-3-yl)-2,5-dimethylthieno[3,2-e][1,2,4]triazolo[1,5-a]pyridine-7-carboxamide]
0.217 µM | 86% | Cc1nc2cc(C)c3c(N)c(C(=O)NCc4ccc(N5CCN(C)CC5)cc4)sc3n2n1 [Compound 8, 6-amino-2,5-dimethyl-N-(4-(4-methylpiperazin-1-yl)benzyl)thieno[3,2-e][1,2,4]triazolo[1,5-a]pyridine-7-carboxamide]
